For experiment [1], the system named is Phosphorylated Ribosomal Protein S6 (RPS6) in THP-1 cells. The experiment in a line: THP-1 RPS6 ELISA assay. As to conditions: Homo sapiens, THP-1, THP-1 cells, serum starved, 2 h compound, 10 nM MCP-1 for 15 min, phospho-RPS6 ELISA; read-out: PI3Kγ_THP1_RPS6_ELISA IC50. In kind it is cell-based, Human. In short, it runs like this:
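Serum-starved THP-1 cells (2×10^5/well, RPMI) preincubated with compound 2 h at 37° C, then stimulated with 10 nM MCP-1 for 15 min. Lysates assayed by phospho-RPS6 ELISA, absorbance 450 nm (540 nm correction); IC50 from percent inhibition versus log concentration.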
Background: In an ELISA, binding on a coated surface is turned into a signal by an enzyme label.

In experiment [2] the target is PI3Kγ (p110γ) Recombinant Human Protein (Homo sapiens (Human), UniProt P48736). Briefly: PI3K-γ scintillation proximity assay. It counts as biochemical. As to conditions: 20 μM PIP2, 2 μM ATP, 13 nM PI3Kγ, 120 min, room temperature. In outline:
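Radiometric SPA in 20 mM MOPS pH 6.7, 10 mM MgCl2, 5 mM DTT, 0.03% CHAPS, 2% DMSO. Stopped with EDTA and WGA SPA beads for scintillation counting. IC50 fitted from % solvent-control activity versus log concentration.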
Background: In a scintillation proximity assay essentially only radioactivity close to the scintillant gives light.

The target in experiment [3] is PI3Kδ (p110δ/p85α) Recombinant Human Protein (Homo sapiens (Human), UniProt O00329). The experiment in a line: PI3Kδ scintillation proximity assay. It counts as biochemical. As to conditions: 20 μM PIP2, 2 μM ATP, 3.4 nM PI3Kδ, 120 min, room temperature. In outline: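 Recombinant human p110δ/p85α was run at room temperature in 20 mM MOPS pH 6.7, 10 mM MgCl2, 5 mM DTT, 0.03% CHAPS, 2% DMSO. Substrates were 20 µM PIP2 and 2 µM ATP with [γ-33P]ATP. Product was captured overnight on WGA SPA beads and counted by scintillation; IC50 fitted from percent of solvent control versus log concentration.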

Structures are written as SMILES. Where a name gives a salt, the structure may show the parent alone. Read-outs that look alike come from different tables or passages of the source.

PI3Kδ (p110δ/p85α) Recombinant Human Protein, sequence (O00329 whole entry): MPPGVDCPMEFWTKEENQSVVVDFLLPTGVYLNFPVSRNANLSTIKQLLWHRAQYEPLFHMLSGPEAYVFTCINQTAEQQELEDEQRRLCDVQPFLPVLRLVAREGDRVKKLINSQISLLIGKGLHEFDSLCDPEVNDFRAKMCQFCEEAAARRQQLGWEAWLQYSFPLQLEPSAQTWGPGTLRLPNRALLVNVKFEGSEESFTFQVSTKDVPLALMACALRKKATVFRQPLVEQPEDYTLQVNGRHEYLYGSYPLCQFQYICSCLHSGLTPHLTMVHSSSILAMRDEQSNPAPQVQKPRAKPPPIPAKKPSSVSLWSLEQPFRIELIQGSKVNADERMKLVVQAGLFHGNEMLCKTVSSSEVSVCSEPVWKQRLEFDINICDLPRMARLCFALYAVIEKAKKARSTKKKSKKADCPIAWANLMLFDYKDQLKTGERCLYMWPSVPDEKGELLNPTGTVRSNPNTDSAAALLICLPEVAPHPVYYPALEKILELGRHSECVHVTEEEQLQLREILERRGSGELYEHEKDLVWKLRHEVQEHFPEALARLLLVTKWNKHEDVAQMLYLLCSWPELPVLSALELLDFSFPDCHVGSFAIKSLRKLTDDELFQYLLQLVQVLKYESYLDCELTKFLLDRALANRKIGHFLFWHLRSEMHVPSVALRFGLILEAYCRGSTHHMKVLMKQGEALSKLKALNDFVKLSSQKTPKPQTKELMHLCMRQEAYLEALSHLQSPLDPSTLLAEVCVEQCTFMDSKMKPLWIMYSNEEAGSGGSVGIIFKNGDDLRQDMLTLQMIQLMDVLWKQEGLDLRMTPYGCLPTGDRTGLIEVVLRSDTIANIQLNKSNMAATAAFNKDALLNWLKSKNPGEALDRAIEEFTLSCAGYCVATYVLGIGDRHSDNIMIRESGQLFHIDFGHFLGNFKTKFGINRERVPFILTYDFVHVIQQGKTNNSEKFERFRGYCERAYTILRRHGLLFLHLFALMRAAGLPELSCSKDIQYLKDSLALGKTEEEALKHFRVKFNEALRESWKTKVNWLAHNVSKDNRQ
PI3Kδ (p110δ/p85α) Recombinant Human Protein, sequence (P27986 whole entry partner): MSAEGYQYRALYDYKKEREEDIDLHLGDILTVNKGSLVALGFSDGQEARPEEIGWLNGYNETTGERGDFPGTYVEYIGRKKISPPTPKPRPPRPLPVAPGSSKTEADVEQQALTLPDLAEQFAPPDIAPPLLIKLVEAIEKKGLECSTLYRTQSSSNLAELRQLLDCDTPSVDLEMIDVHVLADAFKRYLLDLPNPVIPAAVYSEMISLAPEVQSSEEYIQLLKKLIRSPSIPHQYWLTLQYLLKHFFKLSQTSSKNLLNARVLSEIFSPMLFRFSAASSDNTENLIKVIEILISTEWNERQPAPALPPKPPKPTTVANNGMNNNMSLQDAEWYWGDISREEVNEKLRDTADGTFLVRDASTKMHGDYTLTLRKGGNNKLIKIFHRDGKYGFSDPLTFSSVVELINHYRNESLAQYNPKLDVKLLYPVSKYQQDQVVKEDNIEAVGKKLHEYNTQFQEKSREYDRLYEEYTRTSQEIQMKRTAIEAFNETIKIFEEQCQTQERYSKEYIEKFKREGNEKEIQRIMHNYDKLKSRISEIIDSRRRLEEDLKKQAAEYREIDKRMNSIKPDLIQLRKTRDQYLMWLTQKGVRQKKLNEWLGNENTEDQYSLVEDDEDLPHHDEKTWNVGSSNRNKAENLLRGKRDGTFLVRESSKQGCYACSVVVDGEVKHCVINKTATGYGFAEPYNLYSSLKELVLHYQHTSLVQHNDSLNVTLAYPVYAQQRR
PI3Kγ (p110γ) Recombinant Human Protein, sequence (P48736 whole entry): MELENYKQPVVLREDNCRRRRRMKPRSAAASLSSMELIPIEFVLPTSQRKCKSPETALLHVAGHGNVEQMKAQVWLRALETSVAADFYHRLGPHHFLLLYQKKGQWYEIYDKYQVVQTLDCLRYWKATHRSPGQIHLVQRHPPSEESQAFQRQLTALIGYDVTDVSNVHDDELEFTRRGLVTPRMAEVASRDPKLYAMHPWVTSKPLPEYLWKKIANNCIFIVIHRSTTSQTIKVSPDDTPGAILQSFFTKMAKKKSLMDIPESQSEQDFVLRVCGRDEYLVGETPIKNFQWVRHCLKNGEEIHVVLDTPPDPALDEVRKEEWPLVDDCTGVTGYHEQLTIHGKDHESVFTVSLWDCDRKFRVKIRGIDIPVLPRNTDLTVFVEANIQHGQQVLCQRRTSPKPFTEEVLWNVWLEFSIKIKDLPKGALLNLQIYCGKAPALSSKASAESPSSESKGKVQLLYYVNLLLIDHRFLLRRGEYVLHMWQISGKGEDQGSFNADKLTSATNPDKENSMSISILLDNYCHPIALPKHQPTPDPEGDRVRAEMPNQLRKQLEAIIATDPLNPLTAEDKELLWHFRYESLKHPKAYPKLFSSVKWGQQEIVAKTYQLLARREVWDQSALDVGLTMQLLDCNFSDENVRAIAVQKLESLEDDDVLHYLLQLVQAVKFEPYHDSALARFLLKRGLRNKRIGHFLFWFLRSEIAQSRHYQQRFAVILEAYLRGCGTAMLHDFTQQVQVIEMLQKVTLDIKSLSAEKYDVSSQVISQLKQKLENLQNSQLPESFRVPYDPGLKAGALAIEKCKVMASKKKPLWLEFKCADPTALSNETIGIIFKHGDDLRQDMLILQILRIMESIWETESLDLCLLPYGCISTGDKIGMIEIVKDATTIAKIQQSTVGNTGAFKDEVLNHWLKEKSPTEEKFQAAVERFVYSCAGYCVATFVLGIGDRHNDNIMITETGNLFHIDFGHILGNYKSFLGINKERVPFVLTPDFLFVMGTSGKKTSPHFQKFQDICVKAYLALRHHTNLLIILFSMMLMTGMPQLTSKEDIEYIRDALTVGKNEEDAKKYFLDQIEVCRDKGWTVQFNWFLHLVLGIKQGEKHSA

In the case of `CNCCC(O)(c1ccc(C)c(-c2cnc3c(N)nc(C(F)(F)F)cn23)c1)C(F)(F)F` (stereo not drawn) [Example 14, 2-(3-(8-Amino-6-(trifluoromethyl)imidazo[1,2-a]pyrazin-3-yl)-4-methylphenyl)-1,1,1-trifluoro-4-(methylamino)butan-2-ol bis(2,2,2-trifluoroacetate)], the IC50 (as a rule, the midpoint of a concentration-inhibition curve) was less than 100 nM in experiment [1], less than 100 nM in experiment [2] and 100 to 500 nM in experiment [3] (PI3Kδ IC50 (nM)).
In the case of `Cc1ccc(C(O)(CCO)C(F)(F)F)cc1-c1cnc2c(N)nc(C(F)(F)F)cn12` (stereo not drawn) [Example 18, 3-(3-(8-Amino-6-(trifluoromethyl)imidazo[1,2-a]pyrazin-3-yl)-4-methylphenyl)-4,4,4-trifluorobutane-1,3-diol], the concentration for half-maximal inhibition (IC50) in experiment [1] is 100 to 500 nM; in experiment [2] it was less than 100 nM; in experiment [3] (read-out: PI3Kδ IC50), 100 to 500 nM.
In the case of `Cc1ccc(C(O)(C2CC2)C(F)(F)F)cc1-c1cnc2c(N)nc(C(F)(F)F)cn12` (stereo not drawn) [Example 19, 1-(3-(8-Amino-6-(trifluoromethyl)imidazo[1,2-a]pyrazin-3-yl)-4-methylphenyl)-1-cyclopropyl-2,2,2-trifluoroethan-1-ol], the concentration for half-maximal inhibition (IC50) in experiment [1] is greater than 1000 nM; in experiment [2] it was less than 100 nM; in experiment [3] (read-out: PI3Kδ IC50), 100 to 500 nM.
On the same counts, the results for `Cc1ccc(C(C)(O)C(F)(F)F)cc1-c1cnc2c(N)nc(-c3cnc(C4CC4)s3)cn12` (stereo not drawn) [Example 20, 2-(3-(8-Amino-6-(2-cyclopropylthiazol-5-yl)imidazo[1,2-a]pyrazin-3-yl)-4-methylphenyl)-1,1,1-trifluoropropan-2-ol, TFA] are 100 to 500 nM, less than 100 nM and less than 100 nM.
Taken in the same sequence, the figures for `COc1cnc(-c2cn3c(-c4cc(C(C)(O)C(F)(F)F)ccc4C)cnc3c(N)n2)s1` (stereo not drawn) [Example 21, 2-(3-(8-Amino-6-(5-methoxythiazol-2-yl)imidazo[1,2-a]pyrazin-3-yl)-4-methylphenyl)-1,1,1-trifluoropropan-2-ol, TFA] were 100 to 500 nM, less than 100 nM and less than 100 nM.
Taken in the same sequence, the figures for `Cc1cc(CNC(=O)c2cn3c(-c4cc(C(C)(O)C(F)(F)F)ccc4C)cnc3c(N)n2)on1` (stereo not drawn) [Example 22, 8-Amino-3-(2-methyl-5-(1,1,1-trifluoro-2-hydroxypropan-2-yl)phenyl)-N-((3-methylisoxazol-5-yl)methyl)imidazo[1,2-a]pyrazine-6-carboxamide, TFA] were 100 to 500 nM, less than 100 nM and less than 100 nM.
For the compound `Cc1ccc(C(O)C(F)(F)F)cc1-c1cnc2c(N)nc(C(F)(F)F)cn12` (stereo not drawn) [Example 23, 1-(3-(8-Amino-6-(trifluoromethyl)imidazo[1,2-a]pyrazin-3-yl)-4-methylphenyl)-2,2,2-trifluoroethan-1-ol trifluoroacetate salt], the IC50 in experiment [1] was 500 to 1000 nM; in experiment [2], less than 100 nM; in experiment [3] (read-out: PI3Kδ IC50), 500 to 2000 nM.
As for `Cc1ncc(-c2cn3c(-c4cc(C(C)(O)C(F)F)ccc4C)cnc3c(N)n2)o1` (stereo not drawn) [Example 28, 2-(3-(8-Amino-6-(2-methyloxazol-5-yl)imidazo[1,2-a]pyrazin-3-yl)-4-methylphenyl)-1,1-difluoropropan-2-ol], the concentration for half-maximal inhibition (IC50) in experiment [1] was 100 to 500 nM; in experiment [2], less than 100 nM; in experiment [3] (read-out: PI3Kδ IC50) it was less than 100 nM.
For the compound `Cc1ccc(C(C)(O)C(F)F)cc1-c1cnc2c(N)nc(-c3cc(C(N)=O)ccc3F)cn12` (stereo not drawn) [Example 31, 3-(8-Amino-3-(5-(1,1-difluoro-2-hydroxypropan-2-yl)-2-methylphenyl)imidazo[1,2-a]pyrazin-6-yl)-4-fluorobenzamide], the half-maximal inhibitory concentration (IC50) is 100 to 500 nM in experiment [1], less than 100 nM in experiment [2] and 100 to 500 nM in experiment [3] (read-out: PI3Kδ IC50).
Consider `COc1ncccc1-c1cn2c(-c3cc(C(C)(O)C(F)F)ccc3C)cnc2c(N)n1` (stereo not drawn) [Example 33, 2-(3-(8-Amino-6-(2-methoxypyridin-3-yl)imidazo[1,2-a]pyrazin-3-yl)-4-methylphenyl)-1,1-difluoropropan-2-ol], for which the IC50 in experiment [1] is less than 100 nM; in experiment [2], less than 100 nM; in experiment [3] (read-out: PI3Kδ IC50), 100 to 500 nM.
Take `Cc1ncc(-c2cn3c(-c4cc(C(C)(O)C(F)F)ccc4C)cnc3c(N)n2)s1` (stereo not drawn) [Example 34, 2-(3-(8-Amino-6-(2-methylthiazol-5-yl)imidazo[1,2-a]pyrazin-3-yl)-4-methylphenyl)-1,1-difluoropropan-2-ol]: the concentration for half-maximal inhibition (IC50) in experiment [1] is 100 to 500 nM; in experiment [2], less than 100 nM; in experiment [3] (read-out: PI3Kδ IC50) it was less than 100 nM.
On to `Cc1ccc(C(C)(O)C(F)F)cc1-c1cnc2c(N)nc(-c3ccnc(C)c3F)cn12` (stereo not drawn) [Example 35, 2-(3-(8-Amino-6-(3-fluoro-2-methylpyridin-4-yl)imidazo[1,2-a]pyrazin-3-yl)-4-methylphenyl)-1,1-difluoropropan-2-ol], for which the IC50 in experiment [1], in experiment [2] and in experiment [3] (read-out: PI3Kδ IC50) was less than 100 nM each time.
As for `Cc1ccc(C(C)(O)C(F)F)cc1-c1cnc2c(N)nc(-c3cnn(C)c3C)cn12` (stereo not drawn) [Example 36, 2-(3-(8-Amino-6-(1,5-dimethyl-1H-pyrazol-4-yl)imidazo[1,2-a]pyrazin-3-yl)-4-methylphenyl)-1,1-difluoropropan-2-ol], the IC50 was 100 to 500 nM in experiment [1], less than 100 nM in experiment [2] and less than 100 nM in experiment [3] (read-out: PI3Kδ IC50).
With `Cc1ccc(C(C)(O)C(F)F)cc1-c1cnc2c(N)nc(-c3cnn(C)c3)cn12` (stereo not drawn) [Example 37, 2-(3-(8-Amino-6-(1-methyl-1H-pyrazol-4-yl)imidazo[1,2-a]pyrazin-3-yl)-4-methylphenyl)-1,1-difluoropropan-2-ol], the IC50 in experiment [1], in experiment [2] and in experiment [3] (read-out: PI3Kδ IC50) was less than 100 nM each time.
With `Cc1ccc(C(C)(O)C(F)F)cc1-c1cnc2c(N)nc(-c3cn(C)nc3C)cn12` (stereo not drawn) [Example 38, 2-(3-(8-Amino-6-(1,3-dimethyl-1H-pyrazol-4-yl)imidazo[1,2-a]pyrazin-3-yl)-4-methylphenyl)-1,1-difluoropropan-2-ol], the half-inhibitory concentration (IC50) in experiment [1], in experiment [2] and in experiment [3] (read-out: PI3Kδ IC50) was less than 100 nM in each case.
Regarding `Cc1ccc(C(C)(O)C(F)F)cc1-c1cnc2c(N)nc(-c3c(C)n[nH]c3C)cn12` (stereo not drawn) [Example 39, 2-(3-(8-Amino-6-(3,5-dimethyl-1H-pyrazol-4-yl)imidazo[1,2-a]pyrazin-3-yl)-4-methylphenyl)-1,1-difluoropropan-2-ol], the IC50 in experiment [1], in experiment [2] and in experiment [3] (read-out: PI3Kδ IC50) was less than 100 nM in each case.
For `Cc1ccc(C(C)(O)C(F)F)cc1-c1cnc2c(N)nc(-c3cn[nH]c3)cn12` (stereo not drawn) [Example 40, 2-(3-(8-Amino-6-(1H-pyrazol-4-yl)imidazo[1,2-a]pyrazin-3-yl)-4-methylphenyl)-1,1-difluoropropan-2-ol], the results for the half-maximal inhibitory concentration (IC50) in experiment [1], in experiment [2] and in experiment [3] (read-out: PI3Kδ IC50) were 100 to 500 nM, less than 100 nM and less than 100 nM, respectively.
For `Cc1cc(-c2cn3c(-c4cc(C(C)(O)C(F)F)ccc4C)cnc3c(N)n2)n(C)n1` (stereo not drawn) [Example 41, 2-(3-(8-Amino-6-(1,3-dimethyl-1H-pyrazol-5-yl)imidazo[1,2-a]pyrazin-3-yl)-4-methylphenyl)-1,1-difluoropropan-2-ol], the figures for the IC50 in experiment [1], in experiment [2] and in experiment [3] (read-out: PI3Kδ IC50) were 100 to 500 nM, less than 100 nM and 100 to 500 nM, respectively.
For `Cc1ccc(C(C)(O)C(F)F)cc1-c1cnc2c(N)nc(-c3c(C)cnn3C)cn12` (stereo not drawn) [Example 42, 2-(3-(8-Amino-6-(1,4-dimethyl-1H-pyrazol-5-yl)imidazo[1,2-a]pyrazin-3-yl)-4-methylphenyl)-1,1-difluoropropan-2-ol], the figures for the half-inhibitory concentration (IC50) in experiment [1], in experiment [2] and in experiment [3] (read-out: PI3Kδ IC50) were 100 to 500 nM, less than 100 nM and 100 to 500 nM, respectively.
`Cc1ccc(C(C)(O)C(F)F)cc1-c1cnc2c(N)nc(-c3ccn(C)n3)cn12` (stereo not drawn) [Example 43, 2-(3-(8-Amino-6-(1-methyl-1H-pyrazol-3-yl)imidazo[1,2-a]pyrazin-3-yl)-4-methylphenyl)-1,1-difluoropropan-2-ol]: the figures for the half-maximal inhibitory concentration (IC50) in experiment [1], in experiment [2] and in experiment [3] (read-out: PI3Kδ IC50) were 500 to 1000 nM, less than 100 nM and 100 to 500 nM, respectively.
With `Cc1ccc(C(C)(O)C(F)F)cc1-c1cnc2c(N)nc(-c3ccc(CO)nc3)cn12` (stereo not drawn) [Example 46, 2-(3-(8-Amino-6-(6-(hydroxymethyl)pyridin-3-yl)imidazo[1,2-a]pyrazin-3-yl)-4-methylphenyl)-1,1-difluoropropan-2-ol trifluoroacetate], the values for the IC50 in experiment [1], in experiment [2] and in experiment [3] (read-out: PI3Kδ IC50) were less than 100 nM, less than 100 nM and 100 to 500 nM, respectively.
With `Cc1cc(-c2cn3c(-c4cc(C(C)(O)C(F)F)ccc4C)cnc3c(N)n2)on1` (stereo not drawn) [Example 48, 2-(3-(8-Amino-6-(3-methylisoxazol-5-yl)imidazo[1,2-a]pyrazin-3-yl)-4-methylphenyl)-1,1-difluoropropan-2-ol trifluoroacetate], the values for the 50% inhibitory concentration (IC50) in experiment [1], in experiment [2] and in experiment [3] (read-out: PI3Kδ IC50) were 100 to 500 nM, less than 100 nM and 100 to 500 nM, respectively.

(Values after US10738057B2, “Tertiary alcohols as PI3K-γ inhibitors” (Incyte Corporation, priority 2017, dated 2020).)
